The test system of one data set is A375 tumors. Description: In vivo efficacy, A375 xenograft tumor volume (Example 8). The arrangement: species or system human A375 melanoma xenograft in female BALB/c nude mice. The following applies: oral, FIG. 22. The method, then: FIG. 22 is a line graph showing in vivo efficacy of encorafenib, Compound 8, Compound 26, and Compound 38 in the treatment of female BALB/c nude mice bearing A375 tumors. Mice were treated with vehicle (10 μL/g, p.o., BID), encorafenib (35 mg/kg, p.o., QD), Compound 8 (10 mg/kg, p.o., BID), Compound 26 (10 mg/kg, p.o., BID), or Compound 38 (10 mg/kg, p.o., BID) by oral gavage (p.o.). Data points represent group mean change in tumor volume. Error bars represent standard error of the mean (SEM). The x-axis is the time measured in days and the y-axis is A375 tumor volume measured in mm^3. The experiment was conducted as described in Example 8.

The test system of data set [1] is A375 human melanoma xenografts. Description: Example 9 efficacy study Part I in A375 human melanoma xenografts (tumor volume, T/C, TGI). Format: in vivo, BALB/c nude mice. The following applies: 10 mg/kg, p.o., BID × 14 days; for Tumor Size on PG-D14: Mean ± SEM; for TGI (Tumor Growth Inhibition): PG-D14; for T/C: PG-D14, treated/control average tumor volume. The method, then: For efficacy study Part I, agents were tested in the A375 human melanoma xenografts. Compound 218 and Compound 157 were administered to BALB/c nude mice bearing A375 xenografts from day 0 and dosed twice a day (BID) for 14 days. Compound 218 and Compound 157 were dosed at 10 mg/kg via p.o.. Dabrafenib was administered from day 1 daily (QD) for 14 days and dosed at 100 mg/kg via p.o..
The A375 tumor cells were maintained in vitro in DMEM medium supplemented with […] and 1% Penicillin-Streptomycin at 37° C. in an atmosphere of 5% CO2 in air. The tumor cells were routinely subcultured twice weekly. The cells growing in an exponential growth phase were harvested and counted for tumor inoculation.
Each mouse was inoculated subcutaneously at the right flank with A375 cells (5×10^6) in 0.2 mL of PBS supplemented with Matrigel (PBS: Matrigel=1:1) for tumor development. Animals were grouped for the treatment when the average tumor volume reached 243 mm^3 for efficacy study part I and 413 mm^3 for the PK and PD study part I on day 15, and 271 mm^3 for efficacy part II and 443 mm^3 for the PK and PD part II on day 18, and 463 mm^3 for the PK and PD study part III on day 21. The test articles administration and the animal numbers in each group are shown in the above experimental tables.
Prior to the onset of drug treatment, mice were measured for tumor size in two dimensions using a caliper, and the tumor volume (mm^3) was calculated using formula V=0.5 a×b^2 where a and b are the long and short diameters of the tumor in mm, respectively. Mice were randomized into different treatment groups based on the tumor volume.
The major endpoint was to see if the tumor growth could be delayed or mice could be cured. The tumor size was then used for calculations of T/C value. The T/C value (in percent) is an indication of antitumor effectiveness; T and C are the mean volumes of the treated and control groups, respectively on specified day.
TGI was calculated for each group using the formula: TGI (%)=[1−(Ti−T0)/(Ci−C0)]×100; Ti is the average tumor volume of a treatment group on a given day, To is the average tumor volume of the treatment group on the day of treatment start, Ci is the average tumor volume of the vehicle control group on the same day with Ti, and C0 is the average tumor volume of the vehicle group on the day of treatment start.
On the technique in general: In xenograft studies the graft and the host belong to different species.

Another data set deals with A375. Description: A375 cell viability assay (Example 15). Format: cell-based, human. The conditions noted are these: for cytotoxicity (in words): A375 cells; for effect on cancer cell viability: human, a375 cells, 0.1 µM. The method, then: FIG. 83 is a line graph showing the results of Compound 26, Compound 26-NMe, Compound 141, and Compound 141-NMe in an A375 viability assay. The y-axis is viability in % and the x-axis is concentration (nM). The experiment was conducted as described in Example 15.
This robust degradation activity is surprising in view of the minimal inhibition-based activity of selected compounds. […] However, the degradation deficient versions of Compound 26 and Compound 141 (N-methyl analogs) had minimal effect on cell viability at a concentration of 100 nM (see FIG. 83 and Example 15).

Data set [2] deals with luciferase-tagged A375 human melanoma CNS tumor. Description: Survival of mice in CNS tumor study (BRAF intracranial model) (Example 12). Format: in vivo, human A375 CNS xenograft in mice. The following applies: versus encorafenib. The method, then:
FIG. 48 is the survival curve for the mice after administration of vehicle, encorafenib, Compound 26, Compound 141 in CNS tumor study. The x-axis is time measured in days and the y-axis is probability of survival. The experiment was conducted as described in Example 12.
FIG. 85 is an extended survival curve for the BRAF intracranial model experiment after administration of vehicle, encorafenib, Compound 26, and Compound 141 in the CNS tumor study. The x-axis is time measured in days and the y-axis is probability of survival. The experiment was conducted as described in Example 12.

A further data set concerns BRAF V600E. Description: Pharmacodynamics of BRAF protein degradation in inoculated CNS tumors (Example 12). Format: in vivo, human A375 CNS xenograft in mice. The following applies: CNS tumor-bearing mice, after administration, versus encorafenib, FIG. 51. The method, then:
FIG. 51 is a plot showing the pharmacodynamics of BRAF protein degradation in the inoculated CNS tumors. […] The experiment was conducted as described in Example 12.

A short description of data set [3]: Human dose projections for Compound 26 (allometry, PBPK model), Example 15. An excerpt: The first-in-human dose projections for Compound 26 were made using prediction models. These models utilized experimentally determined physicochemical and ADME parameters relevant to Compound 26. The in vivo plasma clearance (Cl) and volume of distribution (Vdss) values obtained across different preclinical species (mouse, rat, dog and monkey) were scaled to predict human values using allometry. […] In addition, the human efficacious AUC (area under the concentration curve) was derived from a PKPD efficacy study in a tumor bearing mouse model. […] With these inputs a pharmacokinetic model (PBPK) was developed to project first in human BID dose. The oral bioavailability data for Compound 26 from preclinical species, mouse, rat, dog and monkey was simulated in the PBPK model for that species, to build confidence in the human PBPK model.

The source of these data is patent US20260297060A1, “COMPOUNDS FOR THE DEGRADATION OF MUTANT BRAF” (C4 THERAPEUTICS, INC., priority 2023, published 2026).

SMILES strings stand for the structures.

Turning to `CCN(C)S(=O)(=O)Nc1ccc(F)c(Oc2ccc3ncn(C4CC5(CCN(C6CCC(c7cc8c(cc7F)c(N7CCC(=O)NC7=O)nn8C)CC6)CC5)C4)c(=O)c3c2)c1C#N` (single isomer, unassigned) [Compound 8, 6-[2-cyano-3-[[ethyl(methyl)sulfamoyl]amino]-6-fluoro-phenoxy]-3-[7-[4-[3-(2,4-dioxohexahydropyrimidin-1-yl)-5-fluoro-1-methyl-indazol-6-yl]cyclohexyl]-7-azaspiro[3.5]nonan-2-yl]-4-oxo-quinazoline], in the data set with A375 tumors (10 mg/kg BID, A375 xenografts), the “tumor regressions in the xenograft model” value is “profound tumor regressions”. The “antitumor response compared with comparators dabrafenib or encorafenib” value in the data set with A375 tumors (A375 human melanoma xenografts) is “more robust antitumor response”.
Regarding `CCN(C)S(=O)(=O)Nc1ccc(F)c(Oc2ccc3ncc(OC4CC5(CCN(C6CCC(c7cc8c(cc7F)c(N7CCC(=O)NC7=O)nn8C)CC6)CC5)C4)nc3c2)c1C#N` (single isomer, unassigned) [Compound 218, 7-[2-cyano-3-[[ethyl(methyl)sulfamoyl]amino]-6-fluoro-phenoxy]-2-[[7-[4-[3-(2,4-dioxohexahydropyrimidin-1-yl)-5-fluoro-1-methyl-indazol-6-yl]cyclohexyl]-7-azaspiro[3.5]nonan-2-yl]oxy]quinoxaline], the “Tumor Volume Trace Over Time” value in data set [1] (Day 0, Mean ± SEM) is listed as 243 ± 5 mm^3; in data set [1] (Day 3, Mean ± SEM), 240 ± 21 mm^3; in data set [1] (Day 7, Mean ± SEM), 114 ± 9 mm^3; in data set [1] (Day 10, Mean ± SEM), 80 ± 9 mm^3; in data set [1] (Day 14, Mean ± SEM), 60 ± 8 mm^3. Besides, in data set [1], the “Tumor Size on PG-D14” value turned out to be 60 ± 8 mm^3. For the same compound, in data set [1], the “TGI (Tumor Growth Inhibition)” value worked out at 116.68%. For the same compound, in data set [1], the T/C was determined as 4.47%.
Take `CCN(C)S(=O)(=O)Nc1ccc(F)c(Oc2ccc3ncn([C@H]4COC5(CCN(C6CC7(C6)CN(c6cc8c(cc6F)c(N6CCC(=O)NC6=O)nn8C)C7)CC5)C4)c(=O)c3c2)c1C#N` [Compound 26, (3R)-3-[6-[2-cyano-3-[[ethyl(methyl)sulfamoyl]amino]-6-fluoro-phenoxy]-4-oxo-quinazolin-3-yl]-8-[2-[3-(2,4-dioxohexahydropyrimidin-1-yl)-5-fluoro-1-methyl-indazol-6-yl]-2-azaspiro[3.3]heptan-6-yl]-1-oxa-8-azaspiro[4.5]decane]: in the data set on A375, the “cytotoxicity (in words)” value is recorded as “potent cytotoxic agents” and the “effect on cancer cell viability” value was not below 30%. For the same compound, the “survival of CNS tumor-bearing mice compared with encorafenib” value in data set [2] is given as “lived significantly longer”. Moreover, the “BRAF V600E levels in the brain tumor compared with encorafenib” value with BRAF V600E is reported as “much lower”. In data set [3] (Table 86), the “Human Vdss” value is recorded as 0.50 L/kg. The “Human CL (PPB corrected plasma clearance)” value in data set [3] (allometry from mouse, rat, dog and monkey) was 0.88 mL/min/kg.
Take `CCN(C)S(=O)(=O)Nc1ccc(F)c(Oc2ccc3ncn(C4CC5(CCN(C6CC7(C6)CN(c6cc8c(cc6F)c(N6CCC(=O)NC6=O)nn8C)C7)CC5)C4)c(=O)c3c2)c1C#N` (stereo not shown) [Compound 141, 6-[2-cyano-3-[[ethyl(methyl)sulfamoyl]amino]-6-fluoro-phenoxy]-3-[7-[2-[3-(2,4-dioxohexahydropyrimidin-1-yl)-5-fluoro-1-methyl-indazol-6-yl]-2-azaspiro[3.3]heptan-6-yl]-7-azaspiro[3.5]nonan-2-yl]-4-oxo-quinazoline]: in the data set with A375, the “cytotoxicity (in words)” value is listed as “potent cytotoxic agents” and the “effect on cancer cell viability” value is not below 30%. The “survival of CNS tumor-bearing mice compared with encorafenib” value in data set [2] is recorded as “lived significantly longer”. Also, the “BRAF V600E levels in the brain tumor compared with encorafenib” value in the data set on BRAF V600E was “much lower”.
As for `CO[C@H]1CCN(S(=O)(=O)Nc2ccc(F)c(Oc3ccc4ncn([C@H]5COC6(CCN(C7CC8(C7)CN(c7cc9c(cc7F)c(N7CCC(=O)NC7=O)nn9C)C8)CC6)C5)c(=O)c4c3)c2C#N)C1` [Compound 157, (3S)-N-[2-cyano-3-[3-[(3R)-8-[2-[3-(2,4-dioxohexahydropyrimidin-1-yl)-5-fluoro-1-methyl-indazol-6-yl]-2-azaspiro[3.3]heptan-6-yl]-1-oxa-8-azaspiro[4.5]decan-3-yl]-4-oxo-quinazolin-6-yl]oxy-4-fluoro-phenyl]-3-methoxy-pyrrolidine-1-sulfonamide], the “Tumor Volume Trace Over Time” value was found to be 243 ± 4 mm^3 in data set [1] (Day 0, Mean ± SEM); 272 ± 12 mm^3 in data set [1] (Day 3, Mean ± SEM); 191 ± 17 mm^3 in data set [1] (Day 7, Mean ± SEM); 166 ± 15 mm^3 in data set [1] (Day 10, Mean ± SEM); 183 ± 37 mm^3 in data set [1] (Day 14, Mean ± SEM). Moreover, the “Tumor Size on PG-D14” value in data set [1] was 183 ± 37 mm^3. Besides, the “TGI (Tumor Growth Inhibition)” value in data set [1] is listed as 105.48%. In data set [1], the T/C amounted to 13.68%.

Broadly, the T/C is the ratio of treated to control.
